Measured values reported in patent publication US12622925B2 (priority 2018, dated 2026).

System: Hydra vulgaris
Type: in vivo
Settings: results in 100% hydra mortality in 92 h
Description: Hydra vulgaris were obtained from Environment Canada (Montreal, Qc) and maintained at 18° C. The hydra classification method (Wilby, O. K., Tesh, J. M., & Shore, P. R., 1990) was used with modification to rate morphology of the adult hydra as an indicator of solution toxicity. In this assay, the scoring of hydra morphology is objective and repeatable with representation in detail in previous literature. The assay included monitoring times at shorter intervals during the first two days (0, 4, 20, and 28 h) and 24 h intervals for the last three days (44, 68, and 92 h). Solutions were not changed during testing. The hydra morphological response was scored and recorded after exposure of toxin with and without sorbent treatment. Mature and non-budding hydra in similar sizes were chosen for testing in order to minimize differences between samples. Controls for this experiment included hydra media. […] The score or average toxicity rating was determined by calculating the average score for morphological changes for a certain group at a specific time point.
FIG. 2 is a depiction of the hydra morphology scale by Wilby (1988): The scale is graded from 0-10, where 10 represents a normal living hydra and 0 represents a disintegrated hydra. The physiologic conditions of hydra were assessed with a dissecting microscope.

Question: For C[C@H]1CCCC(=O)CCC/C=C/c2cc(O)cc(O)c2C(=O)O1 [ZEN, zearalenone], which “minimal effective concentration (MEC)” value is on record?
Answer: 4 ppm
